Test results: US20110301159A1, “KINASE INHIBITOR COMPOUNDS” (UNIVERSITY OF SOUTH FLORIDA, priority 2008, published 2011)
pIC50: −log10 of the molar value. Values after ≈ are worked out from the molar mass of the structure shown. Read-outs that look alike come from different tables or passages of the source. Each block holds one compound with its values, some of them ahead of it.

Legend:
[1] = test system: Jak2-V617F expressing Human Erythroleukemia (HEL) cells; assay: Inhibition of Jak2-V617F dependent HEL cell growth (trypan blue viable cell count); assay type: cell-based; details: for pIC50: read-out: IC50 for inhibition on Jak2-V617F dependent HEL cells proliferation
[2] = Aqueous solubility (MultiScreen Solubility Filter Plate); assay type: physicochemical; details: MultiScreen Solubility Filter Plate (Millipore), kinetic from dmso stock
Protocol: (§1) Methods: Jak2-V617F expressing Human Erythroleukemia (HEL) cells were plated in 96 well plates at ˜40,000 cells per well and incubated with either vehicle control (0.25% DMSO) or with 25 uM of Jak2 kinase inhibitors. Viable cell numbers were then determined at the times (0, 4, 24, 48 and 72 hours) via trypan blue exclusion and a hemocytometer. Aqueous solubility was determined using a MultiScreen® Solubility Filter Plate (Millipore) (see Quantitative method to determine drug aqueous solubility: optimization and correlation to standard methods; http://www.millipore.com/techpublications/tech1/an1730en00) and a Spectrophotometer.

[3] = test system: Marrow derived mononuclear cells (polycythemia vera, Jak2-V617F positive); assay: Ex vivo colony formation of marrow cells from a polycythemia vera patient; assay type: cell-based, human; details: 25 or 2.5 μM
Protocol: Methods: Marrow derived mononuclear cells were obtained from a person, who has been confirmed to have polycythemia vera and also identified as Jak2-V617F positive. Marrow derived mononuclear cells were washed three times in IMDM media and plated at 4×10^5 cells/mL in 1 mL methylcellulose media (0.9% methylcellulose, 30% heat inactivated FCS, 0.1 mM 2-mercaptoethanol, 0.9% BSA, 0.05% NaHCO3, 2 mM/L glutamine, penicillin, streptomycin, 50 ng/mL SCF, and 20 ng/mL IL-3 (Stem Cell Technologies, Vancouver, BC). Vehicle control (DMSO at 0.25%) or inhibitors were added at the indicated concentrations (25 or 2.5 μM). EPO (1 U/mL) was also added as indicated. The cultures were then incubated at 37° C. and 5% CO2 until assessment of colony formation at day 14. Results were expressed as the average number of colonies from duplicate cultures per 4×10^5 cells.

[4] = test system: Jak2-V617F expressing Human Erythroleukemia (HEL) cells; assay: Inhibition of Jak2-V617F dependent HEL cell growth (trypan blue viable cell count); assay type: cell-based; details: for inhibition at 25 µM: Homo sapiens, HEL; for inhibition at 25 µM / % Growth Inhibition: 25 uM inhibitor
Protocol: as §1

[5] = test system: Jak2-V617F expressing HEL cells; assay: Apoptosis assay (Annexin V/Propidium Iodide FACS); assay type: cell-based, Human; details: 25 μM, 48 hours
Protocol: Jak2-V617F expressing HEL cells were exposed to either vehicle control (DMSO), or 25 μM of an inhibitor for 48 hours. The percentage of apoptotic cells was then determined via Annexin V/Propidim Iodide FACS analysis.

[6] = test system: Marrow derived mononuclear cells (Essential Thrombocythemia, Jak2-V617F positive); assay: Ex vivo Jak2-V617F dependent megakaryocyte colony formation (essential thrombocythemia patient); assay type: cell-based, human; details: 25 uM, day 14
Description: Marrow derived mononuclear cells were taken from a person, who was confirmed Essential Thrombocythemia and being Jak2-V617F positive.

recombinant p60c-src = molecular target: T1, recombinant p60c-src (Homo sapiens, UniProt P12931); assay: c-Src assay (in vitro kinase reaction, anti-Src pY418 Western blot); assay type: biochemical; details: 25 uM, 20 minutes, room temperature
T1 construct: purchased Upstate Biotechnology
Protocol: Approximately 4 μL (12 units) of catalytically active recombinant p60c-src (Upstate Biotechnology) was incubated in 46 μL of in vitro kinase reaction buffer (50 mM HEPES, pH 7.6, 5 mM MnCl2, 5 mM MgCl2, 100 mM NaCl, 0.5 mM DTT), either in the presence of DMSO or 25 uM Z3. The reactions were incubated for 20 minutes at room temperature and then
terminated by addition of SDS-containing buffer. The samples were Western blotted with an anti-Src (pY418) polyclonal antibody (Biosource).

HEL cells = assay: Jak2-V617F-induced hematopoietic disease in NOD-SCID mouse model (HEL cell injection); assay type: in vivo, NOD-SCID mice
Protocol: Methods: In the experiment, NOD-SCID mice, N=36. were randomized into 6 groups (n=6). Baseline peripheral blood samples and weights were taken at Day 0. At day 7, 2×10^6 HEL cells were injected into each mouse in Groups 2, 3, 4 and 5. […] Then all the mice were euthanized.
In the experiment, the following measurable endpoints were assessed. For peripheral blood, total white blood cell (WBC) counts, the percentage of blast cells, the percentage of nucleated red blood cells (RBC), and Hematocrits were measured. For bone marrow, quantitative cellularity, and Myeloid cell to erythroid cell (M:E) ratio were assessed. Further, toxicity in spleen, brain, kidney, liver, and lung using histological analysis is assessed.
Peripheral blood samples were obtained via weekly submandibular bleeds using a 21 gauge needle. Blood samples were smeared onto glass slides, stained, and dried. Peripheral blast cells on each slide were then tabulated using a pathology light microscope. The average percent of peripheral blast cells for each treatment group was then graphed as a function of time.
At necropsy, femurs from each animal were formalin fixed, de-calcified and then parrafin embedded. Parrafin sections were then made, stained with hematoxylin and eosin and dried. The number of myeloid and erythroid cells were then tabulated by a veterinary pathologist who was blind to the treatment groups. The ratio of myeloid to erythroid cells was then graphed as a function of treatment group. Further, the average number of mature and immature erythroid cells was then graphed as a function of treatment group.
Additionally, at necropsy, animals were weighed one final time and spleens were then removed from each mouse. The wet weight of each spleen was recorded and the spleen weight to body weight ratio was graphed as a function of treatment group.

Compound: CCN(CC)Cc1cc(/C=C/c2ccc(O)c(CN(CC)CC)c2)ccc1O [NB-1, (Z)- and (E)-4,4′-(Ethene-1,2-diyl)bis(2-((diethylamino)methyl)phenol)]
pIC50 ([1]; Homo sapiens, HEL): ~5.40
solubility [2]: 533 µM (≈ 204 µg/mL)
pathologic cell growth (colony formation at day 14) [3]: reduce pathologic cell growth
inhibition at 25 µM [4]: 98%
% of Cells in Apoptosis [5]: 66%
suppressing HEL cell growth compared with G6 [5]: behaves similarly to G6

Compound: C/C(=C(/C)c1ccc(CN(C)C)c(O)c1)c1ccc(CN(C)C)c(O)c1 [NB-4, (Z)- and (E)-5,5′-(But-2-ene-2,3-diyl)bis(2-((dimethylamino)methyl)phenol)]
solubility [2]: 478 µM (≈ 169 µg/mL)
inhibition at 25 µM [4]: 101%

Compound: CN(C)Cc1ccc(/C=C\c2ccc(CN(C)C)c(O)c2)cc1O [NB-6, (Z)- and (E)-5,5′-(Ethene-1,2-diyl)bis(2-((dimethylamino)methyl)phenol)]
solubility [2]: 538 µM (≈ 176 µg/mL)
inhibition at 25 µM [4]: ~19%

Compound: CCN(CC)Cc1ccc(/C(C)=C(\C)c2ccc(CN(CC)CC)c(O)c2)cc1O [NB-8, (Z)- and (E)-5,5′-(But-2-ene-2,3-diyl)bis(2-((diethylamino)methyl)phenol).2HCl]
solubility [2]: 272 µM
inhibition at 25 µM [4]: 100%

Compound: (Z) and (E)-4,4′-(Hex-3-ene-3,4-diyl)bis(2-((diethylamino)methyl)phenol) [Compound G6]
Jak2-V617F dependent megakaryocyte colony formation [6]: blocks Jak2-V617F dependent megakaryocyte colony formation
Jak2-V617F dependent HEL cell proliferation, dose and time dependence ([1]; HEL cells): Inhibits Jak2-V617F Dependent HEL Cell Proliferation in both a dose and time dependent manner
pIC50 ([1]; HEL cells): ~5.40
pathologic cell growth (colony formation at day 14) [3]: reduce pathologic cell growth
c-Src tyrosine kinase activity (recombinant p60c-src): no effect on c-Src tyrosine kinase activity
time required to inhibit Jak2-V617F dependent cell proliferation by 50% [4]: ~11 h
% Growth Inhibition [4]: 100%
% of Cells in Apoptosis [5]: 79%
Peripheral blood counts of granulocytes, neutrophils, and eosinophils (HEL cells; 10 mg/kg/day): all normal
bone marrow necrosis (HEL cells; 10 mg/kg/day): 2 of 6
histology of brain, kidney, liver, and lung (HEL cells; 10 mg/kg/day): histologically normal
splenic necrosis (HEL cells; 10 mg/kg/day): 3 of 6
percentage of blast cells in peripheral blood (HEL cells; 0.1-10 mg/kg/day): reduces the percentage of blast cells in peripheral blood in a dose-dependent manner
numbers of mature and immature Erythroid cells in bone marrow (HEL cells; mouse, in vivo): reduced numbers of mature Erythroid cells, not immature Erythroid cells

Compound: (Z)- and (E)-4,4′-(But-2-ene-2,3-diyl)bis(2-((diethylamino)methyl)phenol) [NB-2]
pIC50 ([1]; HEL cells): ~5.05
pathologic cell growth (colony formation at day 14) [3]: reduce pathologic cell growth
% Growth Inhibition ([4]; 25 µM): 53%
% of Cells in Apoptosis [5]: 28%
suppressing HEL cell growth compared with G6 [5]: not as effective as G6

The next lines start with results.

solubility [2]: 460 µM (≈ 189 µg/mL)
Compound: CCN(CC)Cc1ccc(/C(C)=C(/C)c2ccc(CN(CC)CC)c(O)c2)cc1O [NB-3, (Z)- and (E)-5,5′-(But-2-ene-2,3-diyl)bis(2-((diethylamino)methyl)phenol)]
inhibition at 25 µM [4]: 101%

solubility [2]: 509 µM (≈ 195 µg/mL)
Compound: CCN(CC)Cc1ccc(/C=C\c2ccc(CN(CC)CC)c(O)c2)cc1O [NB-5, (Z)- and (E)-5,5′-(Ethene-1,2-diyl)bis(2-((diethylamino)methyl)phenol)]
inhibition at 25 µM [4]: 101%

solubility [2]: 495 µM (≈ 201 µg/mL)
Compound: Oc1cc(/C=C\c2ccc(CN3CCCCC3)c(O)c2)ccc1CN1CCCCC1 [NB-7, (Z)- and (E)-5,5′-(Ethene-1,2-diyl)bis(2-(piperidin-1-ylmethyl)phenol)]
inhibition at 25 µM [4]: 99%

solubility [2]: 384 µM
Compound: C/C(=C(\C)c1ccc(CN(C)C)c(O)c1)c1ccc(CN(C)C)c(O)c1 [NB-9, (Z)- and (E)-5,5′-(But-2-ene-2,3-diyl)bis(2-((dimethylamino)methyl)phenol).2HCl]
inhibition at 25 µM [4]: 101%

solubility [2]: 474 µM
Compound: CCN(CC)Cc1ccc(/C=C/c2ccc(CN(CC)CC)c(O)c2)cc1O [NB-10, (Z)- and (E)-5,5′-(Ethene-1,2-diyl)bis(2-((diethylamino)methyl)phenol).2HCl]
inhibition at 25 µM [4]: 100%

solubility [2]: 484 µM (≈ 197 µg/mL)
Compound: Oc1cc(/C=C/c2ccc(CN3CCCCC3)c(O)c2)ccc1CN1CCCCC1 [NB-12, (Z)- and (E)-5,5′-(Ethene-1,2-diyl)bis(2-(piperidin-1-ylmethyl)phenol)]
inhibition at 25 µM [4]: 100%
